The source of these data is article PMC7607171, “Optimized low‐dose combinatorial drug treatment boosts selectivity and efficacy of colorectal carcinoma treatment” (Molecular Oncology, 2020).

By AUC is commonly meant concentration integrated over time. As a reminder, the Tmax is the time from dosing to the highest level. The Cmax is the peak of the concentration-time curve.

“And” between values parts separate entries of the source, which are not always exact repeats. Equal entries are not always repeated. Where two headings read alike, the source gives them in different places.

For data set [1] the following is noted: 0-24h, oral, cited from earlier work.
The next data set has as its system SW620 tumors. The experiment in a line: Subcutaneous xenograft tumor growth. Type of data set: in vivo, Swiss nu/nu mice. As for the experimental part:
All procedures including animal use were performed in accordance with the Institutional Ethical Committee of Animal Care in Geneva and the Swiss Cantonal Veterinary Office (Authorization number GE‐136‐19). Briefly, female and male Swiss nu/nu mice aged 6–8 weeks were obtained from Charles River (Écully, France). For subcutaneous xenografts mice were inoculated in the left flank with 5x10^6 DLD1 or SW620 cells suspended in 100 µL of cell culture medium, supplemented with 1% FBS. Treatment was initiated when palpable tumors had formed (approximately 30 mm^3) on day 4 for DLD1 and day 5 for the SW620 model.
Treatment was initiated once tumor growth was confirmed with bioluminescence measurements. Drugs were administered through oral gavage based on average body weight of the males (100 µL/mouse) and females (80 µL/mouse) at various concentrations, see Tables S10 and S11.
Solution A: step (1) 30% PEG 400 + 5% propylene glycol + 0.5% Tween 80 and (2) 64.5% sterile H2O. Solution B: step (1) 10% DMSO, (2) 30% PEG 300 + 5% Tween 80 and (3) 55% sterile H2O. Vemurafenib was prepared 2x concentrated (half or three/sixth of total solution), and the remaining drugs were prepared 6x concentrated (one/sixth of total solution), after which drugs were diluted to prepare 1x drug concentrations for the ODC or single drugs using the other drugs or complete solvent solutions without drugs for lower concentrations. FOLFOX was administered as 6 mg/kg oxaliplatin two hours before administration of 90 mg/kg leucovorin and 50 mg/kg (DLD1) or 25 mg/kg (SW620) 5‐fluorouracil at day 1 and a repeat of 5‐fluorouracil dosing on day 2.
The Bliss independence model can be used to evaluate the drug interaction potential of a drug mixture. The model is based on the principle that each drug has an independent drug mechanism of action, but all contribute to a common result (e.g., cell death or tumor volume inhibition). The model is based on the probability theory and requires the drug activity of each drug at the selected dose to predict the inhibition rate (IR) at additive doses. For in vivo tumor volume results, we predicted the IR based on the fraction of tumor volume remaining after single‐drug treatment of each of the drugs vs 100% CTRL (F1,2,3,4), using the following formula: IR = […].

Data set [2] in a line: Pharmacokinetics, dried blood spot LC-MS/MS, mice with SW620 tumors. It counts as in vivo. Conditions: for Tmax / AUC(0-t) / Cmax: Swiss Nu/nu, mouse, whole blood (dried blood spot), po, 10 mg/kg, regorafenib 30, vemurafenib 75, GDC-0994 10 mg/kg; for AUC(0-t) / Cmax: whole blood, mean ± SD; for AUC(0-t): oral, read-out: AUC0-24h. On the procedure: The pharmacokinetic (PK) study was performed using the dried blood spot method. Mice were treated with CTRL, ODCs, and corresponding monotherapies as described above. To determine the disposition in blood in the first 24h, blood samples (5 µL/mouse) were collected from the tail vein (n = 4 mice) at 2h, 4h, 8h, and 24h time points and transferred onto paper (a filter paper 903 protein saver card from Whatman (MA, USA)). A disk with the entire spot was punched from the paper card and transferred to the HPLC vial tube. Hundred µL of MeOH containing a mix of internal standards was added, and the tube was vortex‐mixed for about 1 min before injecting 10 µL into the LC‐MS/MS system. The LC‐MS/MS system consisted of an API 4,000 triple quadrupole mass spectrometer (AB sciex, Concord, ON, Canada) controlled by analyst 1.6.1 software. The mass spectrometer was operated in the multiple reaction monitoring (MRM) mode with positive electrospray ionization. The instrument was coupled with an Agilent series 1100 (Waldbronn, Germany) LC system. Chromatography was performed on a Phenomenex Kinetex C18 analytical column (50 mm x 2.1 mm, 2.6 um; Torrance, CA, USA). The flow rate was 0.5 mL/min using gradient elution conditions. The method was fully validated before application to this pharmacokinetic study.

The nature of data set [3]: Serum and intratumor drug concentration at experimental endpoint, SW620 model. It counts as in vivo, mice. Conditions: for concentration at 1 h / Kp at 1 h: Swiss Nu/nu, mouse, oral; for concentration at 1 h: 1h post-treatment at endpoint (day 19); for Kp at 1 h: tumor vs serum, read-out: ratio tumor vs serum; for Kp at 1 h / ratio ODC vs single drug: SW620 model. On the procedure:
At the experimental endpoint, plasma and tumors were collected 1h post‐treatment and part of the tumor tissue was used to determine the intratumor drug concentrations. Plasma and tumor samples were analyzed using the same LC‐MS/MS method used for drug determination in DBS. Before analysis, tumor tissues were homogenized in a 1 mL mixture of water/acetonitrile (30/70). Hundred uL of homogenates were transferred into new tubes and 50 µL of acetonitrile, as well as 50 µL of a mix of internal standards in MeOH were added. Tubes were vortexed and centrifuged for 10 min at 9,000 rpm. The supernatant (100 µL) was evaporated under nitrogen and reconstituted in 100 µL of acetonitrile with 0.1% formic acid/water with 0.1% formic acid (30/70). 10 µL was then injected into the LC‐MS/MS system. Plasma samples were spotted onto the same paper used for whole blood analysis and were extracted and analyzed using the same methods as used for DBS.

A short description of data set [4]: Clinical plasma pharmacokinetics in patients, plasma concentration limit calculation. Conditions: average plasma concentration calculated from AUC0-24h in patients. Type of data set: in vivo. On the procedure:
To select for clinically relevant doses, the clinically attainable drug concentration measured in the blood plasma of patients after treatment is used to calculate the concentration limit for in vitro experiments. […] The average drug concentration is calculated from the AUC0–24h and is implemented as the plasma concentration limit (PCL) which drug dose selection must remain below for in vitro experiments. If a drug is FDA approved, the AUC0–24h selected is the one corresponding to the recommended dose in clinical practice. If a drug is in clinical trials, the AUC0–24h selected is the one corresponding to the maximum tolerated dose in early stage clinical trials. Note, experiments were conducted with the most current PCL calculated from the AUC0–24h information available at the start of experiments (December 2017), see Table S4.

Where [5] appears, read: GDC-0994 10 mg/kg, Exp 6, Day 20.
The mark [6] stands for this setting: GDC-0994 10 mg/kg, Exp 8, Day 19.
Where [7] appears, read: GDC-0994 20 mg/kg, Exp 4, Day 22.
Where [8] appears, read: given as part of SW620-specific ODC.

As to `Cn1c(=O)n(-c2ccc(C(C)(C)C#N)cc2)c2c3cc(-c4cnc5ccccc5c4)ccc3ncc21` [BEZ-235], the area under the curve (AUC) was 741.3 ng·h/mL in data set [1] (400 mg/kg once daily, ref 16) and 1404.4 ng·h/mL in data set [1] (400 mg/kg once daily, ref 17).

For `Cn1nccc1Nc1nccc(-c2ccn([C@H](CO)c3ccc(Cl)c(F)c3)c(=O)c2)n1` [GDC-0994, (S)-1-(1-(4-Chloro-3-fluorophenyl)-2-hydroxyethyl)-4-(2-((1-methyl-1H-pyrazol-5-yl)amino)pyrimidin-4-yl)pyridin-2(1H)-one], the “% CTRL (tumor volume)” value in the data set on SW620 tumors (setting [5]) is on record as 56 33 15 % CTRL; in the data set with SW620 tumors (setting [6]) it was 56 18 7 % CTRL; in the data set on SW620 tumors (setting [7]), 62 31 22 % CTRL. For the same compound, the values for the Volume in the data set on SW620 tumors (setting [5]), in the data set with SW620 tumors (setting [6]) and with SW620 tumors (setting [7]) were 290 170 76 mm^3, 354 114 46 mm^3 and 301 148 105 mm^3, respectively. Further, the Tmax in data set [2] (setting [8]) and in data set [2] (mono) was 2 h in each case. The AUC(0-t) in data set [2] (setting [8]) is 45000 ± 9090 ng·h/mL; in data set [2] (mono) it was 31600 ± 4740 ng·h/mL. For the same compound, the results for the Cmax in data set [2] (setting [8]) and in data set [2] (mono) were 6610 ± 1110 ng/mL and 6090 ± 1930 ng/mL, respectively. Moreover, in data set [2] (mice bearing SW620 tumors, AUC0-24h), the “increase of AUC as part of the ODC vs single-drug treatment” value stood at 1.4 x. Moreover, the concentration at 1 h in data set [3] (serum, 10 mg/kg, as part of ODC, regorafenib 30, selumetinib 0.2, vemurafenib 75, GDC-0994 10 mg/kg, read-out: concentration serum) is 19400 ± 9390 ng/mL; in data set [3] (serum, 10 mg/kg, single drug, regorafenib 30, selumetinib 0.2, vemurafenib 75, GDC-0994 10 mg/kg, read-out: concentration serum) it was 15900 ± 9070 ng/mL; in data set [3] (tumor (SW620), as part of ODC, SW620 tumor, doses as E164, read-out: concentration tumor) it was 5560 ± 3000 ng/g; in data set [3] (tumor (SW620), single drug, SW620 tumor, doses as E164, read-out: concentration tumor) it was 12700 ± 2870 ng/g. For the same compound, the Kp at 1 h in data set [3] (as part of ODC) worked out at 0.29; in data set [3] (single drug), 0.8. The “ratio ODC vs single drug” value in data set [3] (serum) came to 1.22; in data set [3] (tumor), 0.44. Also, in data set [4], the “PCL (plasma concentration limit)” value is 2.02 µM and 2.0 µM.

Consider `CC1(COc2ccc3c(c2)ncn3-c2ccc3cccc(N4CCC(N)CC4)c3n2)COC1` [crenolanib], for which the “PCL (plasma concentration limit)” value in data set [4] was 0.43 µM and 0.4 µM. Besides, the AUC is 3200 ng·h/mL in data set [1] (100 mg/kg twice daily) and 4610 ng·h/mL in data set [1] (200 mg/kg once daily).

Turning to `Clc1ccc(Nc2nnc(Cc3ccncc3)c3ccccc23)cc1` [vatalanib], in data set [4], the “PCL (plasma concentration limit)” value is 8.31 µM and 8.3 µM. Also, the area under the curve (AUC) in data set [1] (1,000 mg/kg once daily) is 52900 ng·h/mL; in data set [1] (1,200 mg/kg once daily), 69200 ng·h/mL.

For the compound `O=C(CCCCCCC(=O)Nc1ccccc1)NO` [vorinostat], in data set [4], the “PCL (plasma concentration limit)” value is 0.19 µM and 0.2 µM. Besides, the area under the curve (AUC) in data set [1] (200 mg/kg twice daily) is 4.61 µM·h.
